Results on one compound are retold here after patent US12121514B2, “Nonselective metabotropic glutamate receptor activators for treatment of attention deficit disorder and 22Q syndrome” (THE CHILDREN'S HOSPITAL OF PHILADELPHIA, priority 2015, dated 2024).

The structures appear in SMILES notation.

This assay has as its system adolescent subjects with ADHD and at least one genetic alteration in an mGluR network gene. As to the kind of experiment: Actigraphy, Phase Ib trial of NFC-1. It is filed as in vivo, human. From the text: Actigraphy is non-invasive monitoring of human rest/activity cycles, using an actigraph worn by the patient to document body movements. Actigraphs can be worn during school, for example, to measure activity levels. Actigraphy analysis can measure changes in sleep and hyperactivity that may be seen with treatment for ADHD.
All efficacy assessments, except actigraphy, were made at study enrollment (“enrollment baseline”) and again, including actigraphy, once-per-week for the placebo week (“week 1” or “placebo baseline”) and at each of the 4 weeks of NFC-1 treatment. These efficacy measures include items 1-18 of the Vanderbilt scale assessing symptoms related to inattentiveness and hyperactivity-impulsiveness as well as additional questions 19-47 of the Vanderbilt scale assessing other behavioral symptoms (conducted by parent), actigraphy for quantitative measurement of activity, Quotient® ADHD test for objective measurement of micro-motion and shifts in attention state, PERMP-Math test, and CGI-I and CGI-S for assessment of global functioning. […]

For the compound `O=C1CC[C@H](C(=O)N2CCCCC2)N1` [NFC-1, fasoracetam monohydrate], the “bursts of medium/high intensity movements (actigraphy)” value (400 mg bid in comparison with placebo, P<0.001) is “significant reduction”. Also, where the note is “week 1 (placebo) to week 5, genetic Tiers 1, 2 and 3”, the “reduction in moderate to vigorous physical activity (MVPA)” value is “most prominent in 400 mg bid dose group”.
